“Also recorded” adds a separate entry of the source.
Assays:
Format in all cases: cell-based, mouse
[1] = system: Bcl-2 expressing beclin1^+/+ and beclin1^+/− iBMK cells; assay: Survival during metabolic stress and recovery without and with ROS scavenger (time-lapse images, adherent cells); conditions: NAC 1 mM, 5 days of metabolic stress
Description: (§1) FIG. 5 illustrates effects of metabolic stress in promoting elevated ROS production and chromosomal instability in autophagy-deficient cells. (A) Autophagy-deficiency leads to elevated ROS production. Overlays show ROS levels in Bcl-2 expressing beclin1^+/+ (Green) and beclin1^+/− iBMK cells (Blue) (x-axis, log scale) under normal growth (0 Di) and at 0.5, 1, 2.5 and 24 hr (beclin1^+/+, green arrows and beclin1^+/−, red arrows) during recovery (0.5-24 hR) from 5 days of metabolic stress (5 Di) by flow-cytometry using the ROS sensor DCF-DA. The ROS levels in untreated cells are shown in dotted lines for comparison. (B) Representative histogram from three independent experiments measuring the mean ROS levels in Bcl-2 expressing beclin1^+/+ and beclin1^+/− iBMK cells shown in (A). […] Representative time-lapse images of Bcl-2 expressing beclin1^+/+ and beclin1^+/− iBMK cells during recovery following 5 days of metabolic stress in presence (NAC) and absence (UT) of the ROS scavenger NAC (1 mM) (relative percentage of adherent cells compared to time 0 is shown). […] Western blot analysis of p62 levels in Bcl-2 expressing beclin1^+/+, beclin1^+/−, atg5^+/+ and atg5^−/− iBMK cell lines following 0 or 7 days of metabolic stress followed by 1 day recovery without and with NAC. […] Numbers represent passage numbers at which ploidy was determined. […]

p62 = assay: Western blot analysis of p62 levels after metabolic stress without and with NAC
Description: as §1

[2] = system: diploid beclin1^+/+ and beclin1^+/− iBMK cells; assay: Flow-cytometry analysis of DNA content (progression to aneuploidy) over passages without and with NAC; conditions: NAC 1 mM
Description: FIG. 5 illustrates effects of metabolic stress in promoting elevated ROS production and chromosomal instability in autophagy-deficient cells. (A) Autophagy-deficiency leads to elevated ROS production. Overlays show ROS levels in Bcl-2 expressing beclin1^+/+ (Green) and beclin1^+/− iBMK cells (Blue) (x-axis, log scale) under normal growth (0 Di) and at 0.5, 1, 2.5 and 24 hr (beclin1^+/+, green arrows and beclin1^+/−, red arrows) during recovery (0.5-24 hR) from 5 days of metabolic stress (5 Di) by flow-cytometry using the ROS sensor DCF-DA. The ROS levels in untreated cells are shown in dotted lines for comparison. […] Numbers represent passage numbers at which ploidy was determined.
To determine if the elevated ROS and oxidative stress in autophagy-deficient cells contributes to cellular damage, the stress response without and with the ROS scavenger, N-acetyl cysteine (NAC) was examined. […] To examine the role of increased ROS levels and oxidative stress on genomic instability, the DNA content of early passage diploid beclin1^+/+, and autophagy-deficient beclin1^+/− iBMK cells without and with NAC by flow-cytometry were monitored. beclin1^+/+ iBMK cells maintained diploidy after 40 passages and the presence of NAC had no effect. […]

[3] = system: Bcl-2 expressing beclin1^+/+ and beclin1^+/− iBMK cells; assay: MTT assays of sensitivity to ER stress and proteasome inhibition; conditions: MTT assay; increasing concentrations; tunicamycin 3 days, epoxomycin 2 days; normal growth conditions
Description: FIG. 3 illustrates the effects of autophagy defects in altering the stress response and sensitize cells to ER stress and proteasome inhibition. (A) Western blots showing levels of p62, ER chaperones, PDI and ubiquitin in Bcl-2 expressing beclin1^+/+, beclin1^+/−, atg5^+/+ and atg5^−/− iBMK cells following 5 or 7 days of metabolic stress, and 1 and 2 days of recovery. (B-D) Allelic loss of beclin1 sensitizes cells selectively to ER stress and proteasome inhibition. MTT assays showing sensitivity of Bcl-2 expressing beclin1^+/+ (Blue) and beclin1^+/− (Red) iBMK cells in response to increasing concentrations of (B) tunicamycin for 3 days, or (C) epoxomycin for 2 days, and (D) following 5 days of metabolic stress. Data are presented as mean±SD. (E) Autophagy deficiency causes mitochondrial damage. […]
Since autophagy defects indicated an elevated demand for protein folding, the sensitivity of beclin1 cells to pharmacological induction of ER stress was investigated. […] Degradation of unfolded proteins via the proteasome pathway and ameliorates ER stress and to investigate if autophagy deficiency also elevated the burden on the ubiquitin-proteasome system, the sensitivity to the proteasome inhibitor epoxomycin was assessed. […]

| Compound | protective effect in beclin1^+/− cells relative to wild-type [1] | survival during metabolic stress ([1]; beclin1^+/+ and beclin1^+/− cells) | p62 accumulation during metabolic stress (p62; NAC 1 mM, beclin1^+/− iBMK cells) | p62 accumulation in autophagy-deficient cells (p62; beclin1^+/− and atg5^−/− cells, 7 days of metabolic stress followed by 1 day recovery, with NAC) | effect on maintenance of diploidy ([2]; beclin1^+/+ iBMK cells, 40 passages) | progression to aneuploidy ([2]; beclin1^+/− cells, passages 18 and 39) | sensitivity of beclin1^+/− cells compared to wild-type cells [3] |
| --- | --- | --- | --- | --- | --- | --- | --- |
| CC(=O)N[C@@H](CS)C(=O)O [NAC, N-acetyl cysteine] | more profound | partially rescues the susceptibility to metabolic stress and recovery; also recorded: improved survival | decreased p62 accumulation | suppresses p62 accumulation | had no effect | limits progression to aneuploidy; also recorded: delayed this progression | – |
| Tunicamycin | – | – | – | – | – | – | increased sensitivity |

Source: patent US8187802B2, “Cell lines useful for assessing modulation of autophagy” (Rutgers, The State University of New Jersey, priority 2008, dated 2012)
